Values quoted from earlier work in patent publication US20250312353A1, “DRUG R[…] TREATMENT OF […] MALFORMATIONS” (University of South Carolina, priority 2024, published 2025).

How the values were obtained:
[1] = system: human lung tumor associated endothelial cell; details: on matrigel; even in the presence of VEGF
[2] = system: host macrophage; details: bacterial infection

For `COc1nc2ccc(Br)cc2cc1[C@@H](c1ccccc1)[C@@](O)(CCN(C)C)c1cccc2ccccc12` [bedaquiline], the “effect on capillary network formation” value [1] is given as “inhibit capillary network formation” and the “effect on host macrophage innate immune resistance” value [2] is given as “activate host macrophage innate immune resistance to bacterial infection”.
